For 21 compounds, EC50, fold change (FC) and Activity results are on record in ChEMBL document CHEMBL1153404, “Design and structural analysis of novel pharmacophores for potent and selective peroxisome proliferator-activated receptor gamma agonists” (J Med Chem, 2009).

The target of test [1] is T1, Peroxisome proliferator-activated receptor alpha (Homo sapiens, UniProt Q07869).
T1 sequence (Q07869 whole entry): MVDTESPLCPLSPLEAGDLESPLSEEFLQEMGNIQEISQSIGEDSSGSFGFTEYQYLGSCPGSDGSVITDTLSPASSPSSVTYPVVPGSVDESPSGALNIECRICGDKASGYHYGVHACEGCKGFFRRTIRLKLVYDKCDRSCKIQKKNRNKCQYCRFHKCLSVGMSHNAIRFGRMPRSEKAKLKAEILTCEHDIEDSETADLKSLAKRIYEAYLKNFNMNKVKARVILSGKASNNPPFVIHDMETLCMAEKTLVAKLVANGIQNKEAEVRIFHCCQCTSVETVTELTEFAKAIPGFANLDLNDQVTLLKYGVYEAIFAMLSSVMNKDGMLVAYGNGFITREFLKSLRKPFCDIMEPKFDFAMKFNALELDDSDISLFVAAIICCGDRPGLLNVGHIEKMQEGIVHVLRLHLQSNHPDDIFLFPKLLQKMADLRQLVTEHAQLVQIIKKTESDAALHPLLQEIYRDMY
Kind of test: Agonist activity at human PPARalpha receptor by cell based transactivation assay. It counts as functional.

Test [2] deals with T2, Peroxisome proliferator-activated receptor delta (Homo sapiens, UniProt Q03181).
T2 sequence (Q03181 whole entry): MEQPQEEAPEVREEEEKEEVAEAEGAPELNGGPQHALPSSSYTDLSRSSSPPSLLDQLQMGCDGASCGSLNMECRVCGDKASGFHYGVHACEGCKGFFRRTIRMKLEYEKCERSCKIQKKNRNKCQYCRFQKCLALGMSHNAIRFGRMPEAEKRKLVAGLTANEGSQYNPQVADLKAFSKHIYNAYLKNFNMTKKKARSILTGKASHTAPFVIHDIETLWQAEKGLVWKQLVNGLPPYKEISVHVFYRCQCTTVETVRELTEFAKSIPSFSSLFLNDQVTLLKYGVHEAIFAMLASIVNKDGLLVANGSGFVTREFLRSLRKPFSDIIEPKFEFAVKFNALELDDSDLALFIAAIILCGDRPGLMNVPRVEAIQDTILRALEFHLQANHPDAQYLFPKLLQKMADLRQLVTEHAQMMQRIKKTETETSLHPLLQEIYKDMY
Put plainly: Agonist activity at human PPARdelta receptor by cell based transactivation assay.

Test [3] addresses T3, Peroxisome proliferator-activated receptor gamma (Homo sapiens, UniProt P37231).
T3 sequence (P37231 whole entry): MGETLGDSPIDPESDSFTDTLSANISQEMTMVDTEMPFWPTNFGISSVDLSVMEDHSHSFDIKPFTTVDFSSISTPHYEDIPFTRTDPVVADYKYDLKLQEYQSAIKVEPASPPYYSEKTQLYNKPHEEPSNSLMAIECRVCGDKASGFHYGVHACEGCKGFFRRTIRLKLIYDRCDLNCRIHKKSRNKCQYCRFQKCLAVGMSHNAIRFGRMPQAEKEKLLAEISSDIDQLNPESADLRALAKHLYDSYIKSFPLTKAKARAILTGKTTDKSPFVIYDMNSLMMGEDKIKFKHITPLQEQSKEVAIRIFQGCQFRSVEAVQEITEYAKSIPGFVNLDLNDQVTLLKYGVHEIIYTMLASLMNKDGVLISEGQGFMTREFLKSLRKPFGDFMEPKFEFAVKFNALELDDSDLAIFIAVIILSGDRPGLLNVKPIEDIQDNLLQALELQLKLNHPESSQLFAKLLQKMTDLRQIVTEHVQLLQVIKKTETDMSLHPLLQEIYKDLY
Description: Agonist activity at human PPARgamma receptor by cell based transactivation assay

The species entered for test [4] is Homo sapiens. Put plainly: Selectivity of EC50 for human PPARalpha receptor over EC50 for human PPARgamma receptor.
Test [5] is filed under the species Homo sapiens. Put plainly: Selectivity of EC50 for human PPARalpha receptor over EC50 for human PPARdelta receptor.
Test [6] is filed under the species Homo sapiens. Kind of test: Selectivity of EC50 for human PPARgamma receptor over EC50 for human PPARalpha receptor.

`CCCc1cc(C(=O)c2ccc3ccccc3c2)ccc1OCCCn1ccc2cc(OC(C)(C)C(=O)O)ccc21`: the half-maximal effective concentration (EC50) was 30 nM in test [1], greater than 10000 nM in test [2] and 370 nM in test [3].
Turning to `CCCc1c(OCCCn2ccc3cc(OC(C)(C)C(=O)O)ccc32)ccc2cc(Cc3ccccc3)ccc12`, the EC50 in test [1], in test [2] and in test [3] was greater than 10000 nM each time.
For the compound `CCCc1c(OCCCn2ccc3cc(OC(C)(C)C(=O)O)ccc32)ccc2cc(C(=O)c3ccccc3)ccc12`, the concentration giving a half-maximal response (EC50) in test [2] was greater than 10000 nM.
With `CCCc1c(OCCCn2ccc3cc(OC(C)(C)C(=O)O)ccc32)ccc2cc(C(=O)c3ccncc3)ccc12`, the EC50 in test [1] was greater than 10000 nM; in test [2], greater than 10000 nM; in test [3], 2070 nM.
Turning to `CCCc1c(OCCCn2ccc3cc(OC(C)(C)C(=O)O)ccc32)ccc2cc(C(=O)c3ccc(OC)cc3)ccc12`, the EC50 in test [1] was 130 nM; in test [2] it was greater than 10000 nM; in test [3], 510 nM.
Regarding `CCCc1cc(C(=O)c2ccc3ccccc3c2)ccc1OCCCn1ccc2c(OC(C)(C)C(=O)O)cccc21`, the concentration for a half-maximal effect (EC50) is 30 nM in test [1], greater than 10000 nM in test [2] and 2800 nM in test [3]. Moreover, the fold change (FC) in test [4] and in test [5] was greater than 100 in each case.
As for `CCCc1c(OCCCn2ccc3cc(OC(C)(C)C(=O)O)ccc32)ccc2c(C(=O)c3ccccc3)cccc12`, the values for the concentration giving a half-maximal response (EC50) in test [1], in test [2] and in test [3] were 200 nM, greater than 10000 nM and 3500 nM, respectively.
In the same order, the values of `CCCc1cc(C(=O)c2ccc(OC)cc2)ccc1OCCCn1ccc2cc(OC(C)(C)C(=O)O)ccc21` are 50 nM, 4450 nM and 470 nM.
Consider `CCCc1cc(C(=O)c2ccccc2)ccc1OCCCn1ccc2c(OC(C)(C)C(=O)O)cccc21`, for which the EC50 in test [1] is 30 nM; in test [2], greater than 10000 nM; in test [3], greater than 10000 nM.
In the case of `CCCc1c(OCCCN2CCCc3c(OC(C)(C)C(=O)O)cccc32)ccc2cc(C(=O)c3ccccc3)ccc12`, the results for the EC50 in test [1], in test [2] and in test [3] were 120 nM, greater than 10000 nM and 100 nM, respectively.
On to `CCCc1c(OCCCn2ccc3cc(OC(C)(C)C(=O)O)ccc32)ccc2cc(C(=O)c3ccoc3)ccc12`, for which the EC50 in test [1] is 130 nM; in test [2], greater than 10000 nM; in test [3] it was 430 nM.
For `CCCc1cc(C(=O)c2ccc(F)cc2)ccc1OCCCn1ccc2cc(OC(C)(C)C(=O)O)ccc21`, the EC50 in test [1] was 130 nM; in test [2], greater than 10000 nM; in test [3], 900 nM.
Regarding `CCCc1c(OCCCn2ccc3cc(OC(C)(C)C(=O)O)ccc32)ccc2cc(C(C)=O)ccc12`, the EC50 was greater than 10000 nM in test [1], greater than 10000 nM in test [2] and 1070 nM in test [3].
Regarding `CCCc1c(OCCCN2CCCc3cc(OC(C)(C)C(=O)O)ccc32)ccc2cc(C(=O)c3ccccc3)ccc12`, the figures for the 50% effective concentration (EC50) in test [1], in test [2] and in test [3] were 240 nM, greater than 10000 nM and 540 nM, respectively.
With `CCCc1cc(C(=O)c2ccccc2)ccc1OCCCn1ccc2cc(OC(C)(C)C(=O)O)ccc21`, the EC50 in test [1] stood at 40 nM; in test [2], 5270 nM; in test [3], 420 nM.
For the compound `CCCc1cc(C(=O)c2ccc(-c3ccccc3)cc2)ccc1OCCCn1ccc2cc(OC(C)(C)C(=O)O)ccc21`, the EC50 in test [1] was 1920 nM; in test [2], greater than 10000 nM; in test [3], 120 nM. For the same compound, the fold change (FC) in test [6] is 15.
In the case of `CCCc1c(OCCCn2ccc3cc(OC(C)(C)C(=O)O)ccc32)ccc2cc(C(=O)c3ccc(F)cc3)ccc12`, the EC50 in test [1] is greater than 10000 nM; in test [2], greater than 10000 nM; in test [3] it was 2120 nM.
`CCCc1cc(C(=O)c2ccc(-c3ccccc3)cc2)ccc1OCCCN1CCCc2c(OC(C)(C)C(=O)O)cccc21`: the EC50 in test [1] is 3990 nM; in test [2] it was greater than 10000 nM; in test [3], 50 nM.
`CN(CCOc1ccc(CC2SC(=O)NC2=O)cc1)c1ccccn1` (stereo not given): the Activity in test [6] worked out at 80.
For `CCCc1cc(C(=O)c2ccc(-c3ccccc3)cc2)ccc1OCCCn1ccc2c(OC(C)(C)C(=O)O)cccc21`, the EC50 was 4070 nM in test [1], greater than 10000 nM in test [2] and 300 nM in test [3]. The fold change (FC) in test [4] was greater than 300; in test [5] it was greater than 300; in test [6], 15.
Turning to `CCCc1cc(C(=O)c2ccc(-c3ccccc3)cc2)ccc1OCCCN1CCCc2cc(OC(C)(C)C(=O)O)ccc21`, the results for the EC50 in test [1], in test [2] and in test [3] were greater than 10000 nM, greater than 10000 nM and 100 nM, respectively.
